Experiment: Human HepG2 cell viability assay in 384 well format
Format: toxicity, cell-based
Design: dose 125 nL, time 70.5 hour; concentration not given beside the values
Conditions: HepG2 cells, read-out: Inhibition

| Structure (SMILES) | cytotoxicity at 70.5 h |
| --- | --- |
| COc1cc(NC2CCCNC2)cc(OC)c1 (stereo unspecified) | 17.7% |
| COc1ccc(C(C#N)NC(=O)CC2=CCCCC2)c(OC)c1 (stereo unspecified) | -3.57% |
| CN(C)c1ccc(NC(=O)N2CCCCC2c2ncc[nH]2)cn1 (stereo unspecified) | 14.8% |
| Cc1cc(C)c(CNc2nc3ccccc3cc2CO)c(=O)[nH]1 | 6.72% |
| CS(=O)(=O)NCC(=O)NC(Cc1ccccc1)C1CCCC1 (stereo unspecified) | -4.4% |
| CS(=O)(=O)c1nccn1CCOc1ccccc1F | 13.8% |
| COc1cccc(C2=CCN(CCN3CCOC3=O)CC2)c1 | 11.1% |
| CS(=O)(=O)N1CCO[C@@H]2CN(C(=O)N3CCCC3)CC[C@@H]2C1 | -8.13% |
| CN(C)C(=O)CN1CCO[C@H]2CN(Cc3ccoc3)C[C@H]21 | -4.25% |
| CC(C)NC(=O)C1CN(C(=O)N(C)C)CC12CCOCC2 (stereo unspecified) | -3.34% |
| Cc1ccc(CNCC2Cn3nncc3CO2)o1 (stereo unspecified) | -3.52% |
| Cc1nnc([C@@]23CCO[C@@H]2CCN(S(=O)(=O)c2cccnc2)C3)o1 | -5.15% |
| COCC1CC2(CCN(Cc3ccoc3)CC2)CN1Cc1ccccn1 (stereo unspecified) | 16.1% |
| c1coc(CNCC2Cn3nncc3CO2)c1 (stereo unspecified) | -8.73% |
| Cc1ccc(CN2C[C@H](NC(=O)c3nccn3C)[C@H]3OCCC[C@H]32)o1 | 18.3% |
| COCC1c2nnn(C)c2CCN1C(=O)COc1ccccc1OC (stereo unspecified) | 1.52% |
| CN(C)C(=O)NCC1CC2(CO1)CN(c1nncs1)C2 (stereo unspecified) | 1.71% |
| CN1CCC2(C=C(C(=O)N(C)C)c3ccccc32)CC1 | 2.91% |
| COCC1c2nnn(C)c2CCN1C(=O)c1ccc(OC)c(F)c1 (stereo unspecified) | -7.3% |
| Cc1nc(COC[C@@]23CCC[C@@H]2CN(Cc2cnn(C)c2)C3)cs1 | -5% |
| Cc1csc([C@H]2C[C@@H]3CCN(Cc4cc(C)on4)C[C@H]3O2)n1 | -5.27% |
| COCC1c2nnn(C)c2CCN1C(=O)CCc1cccc(OC)c1 (stereo unspecified) | -3.47% |

| Structure (SMILES) | cytotoxicity at 70.5 h |
| --- | --- |
| CCN1CCN(C)C2(CCN(C(=O)CC(F)(F)F)CC2)C1=O | 0.29% |
| CN1CCN(C)C2(CCN(C(=O)CC(F)(F)F)CC2)C1=O | 0.213% |
| CCN1CC2(CC1=O)CN(C(=O)NC(C)C)CCN(C(=O)NC(C)C)C2 | -4.47% |
| c1cncc(N2CCCn3nnc(CN4CCOCC4)c3C2)c1 | -5% |
| CCn1nc(C)cc1C(=O)N1C[C@@H]2C[C@@H](c3nc(C)cs3)O[C@@H]2C1 | -2.46% |
| CO[C@H]1CCN(C(=O)Cc2ccc(F)cc2)[C@H]1Cc1ccncc1 | -8.07% |
| COC[C@@]12CCC[C@@H]1CN(C(=O)COC1CCCC1)C2 | -6.5% |
| COC[C@@]12CCC[C@@H]1CN(C(=O)N1CCCC1)C2 | -6.53% |
| CCN1C[C@H]2CCN(C(=O)Cc3cccc(OC)c3)CC[C@H]2S1(=O)=O | -8.13% |
| Cn1ccnc1CN1CCC2(COCCN(S(=O)(=O)C3CC3)C2)C1 (stereo unspecified) | -10.6% |
| CS(=O)(=O)N1CCCC12CCN(Cc1ccoc1)CC2 | -3.22% |
| CC(C)CNC(=O)C1=NOC2(CCN(Cc3ccoc3)C2)C1 (stereo unspecified) | -0.398% |
| C[C@H]1CN(C(=O)c2cccnc2)C[C@@]12CCN(CCN1CCCC1)C2=O | -6.14% |
| Cc1cccc(CN2CC[C@H]3OCC[C@@]3(C(=O)N3CCOCC3)C2)n1 | -4.06% |
| CN(C)C(=O)[C@H]1C[C@@H]2CN(S(=O)(=O)Cc3ccccc3)C[C@H]1O2 | -17.1% |
| Cn1cc(-c2cnc(N3CCOCC3)nc2)cc1C(=O)N1CCOCC1 | -22% |
| COCCC(=O)N1CC2(CCN(Cc3ccoc3)C2)C1 | 33.7% |
| COCC1CN(C(=O)c2ccoc2C)Cc2nccn2C1 (stereo unspecified) | 22.7% |
| COCC1CN(C(=O)c2cccn2C)Cc2nccn2C1 (stereo unspecified) | -18.2% |
| Cc1ccc(CN2CCCC3(CCN(S(=O)(=O)N(C)C)C3)C2)o1 (stereo unspecified) | -9.63% |
| CC(C)Nc1nc(N2CCOCC2)nc2c1CN(Cc1ccoc1)CC2 | -12.3% |
| CC(=O)NCC(=O)N1CCN(CC2CC2)c2ncccc2C1 | -9.1% |

| Structure (SMILES) | cytotoxicity at 70.5 h |
| --- | --- |
| c1ccc(-c2nnn3c2COC(CNCC2CCOCC2)C3)cc1 (stereo unspecified) | -5.85% |
| Cn1cccc1C(=O)N1CCc2ncnc(C3CC3)c2CC1 | -0.695% |
| O=C1NC2(CCNCC2)CC1c1cccnc1 (stereo unspecified) | -7.17% |
| CCO[C@@H]1CCN(C(=O)c2ccc[nH]2)[C@@H]1Cc1cnn(C)c1 | -2.67% |
| CCO[C@@H]1CCN(C(=O)c2cscn2)[C@@H]1Cc1cnn(C)c1 | -10.2% |
| CO[C@H]1CCN(C(=O)Cc2ccccn2)[C@H]1Cc1ccncc1 | -7.06% |
| C[C@@H]1CN(C(=O)c2ccsc2)C[C@]12CCN(c1ccsc1)C2=O | 1.23% |
| O=C(c1ccc2c(c1)OCO2)N1CCC[C@]2(C[C@H](OCC3CC3)CO2)C1 | -9.71% |
| O=C(c1cccs1)N1CCC2(C1)c1ccccc1S(=O)(=O)N2CC1CC1 (stereo unspecified) | -3.76% |
| COCCC(=O)N1CC[C@@H]2O[C@@H](C)C[C@H]2C1 | -15.5% |
| O=C(c1cscn1)N1CCC[C@]2(C[C@H](OCC3CC3)CO2)C1 | -5.48% |
| COc1ccccc1CN1CCC2(CC1)CC(Oc1ccccn1)CO2 (stereo unspecified) | 47.3% |
| O=C(c1cccnc1)N1CCC2(CC1)CNc1c(F)cccc12 | -1.96% |
| c1ccc2c(c1)C(NC1CCCC1)CC21CCNCC1 (stereo unspecified) | -1.32% |
| Cc1ccc2c(c1)C1(CCNCC1)CC2NCCO (stereo unspecified) | -1.58% |
| CCc1ncnc2c1CCN(CC(=O)N(C)C)CC2 | -1.77% |
| Cc1nnc([C@]23COC[C@H]2CN(S(=O)(=O)c2cccnc2)C3)o1 | -5.13% |
| Cn1ccnc1C(=O)N[C@@H]1CN(CC2CCOCC2)[C@@H]2CCCO[C@@H]21 | -2.65% |
| COCCN1C(=O)CC(c2cccnc2)C12CCN(C(=O)C1CC1)CC2 (stereo unspecified) | -0.348% |
| O=C(c1ccccc1F)N1CCC2(CC1)CC(N1CCCC1)CO2 (stereo unspecified) | -7.88% |
| CC(C)CN1CCC2(C=C(C(=O)N(C)C)c3ccccc32)CC1 | -2.19% |
| Cn1cc(CN2C[C@H]3CCC[C@@]3(COCC3CC3)C2)cn1 | -1.1% |

| Structure (SMILES) | cytotoxicity at 70.5 h |
| --- | --- |
| Cn1ccnc1C(=O)N[C@@H]1CN(Cc2ccoc2)[C@@H]2CCCO[C@@H]21 | -2.77% |
| Cc1csc([C@H]2C[C@H]3CN(Cc4cc(C)on4)CC[C@@H]3O2)n1 | -7.64% |
| CCN1CCC2(C=C(C(=O)N(C)C)c3ccccc32)CC1 | 0.372% |
| Fc1cnc(N2CCCC3(CN(Cc4cccs4)CCO3)C2)nc1 (stereo unspecified) | 2.35% |
| CNC(=O)[C@H]1C[C@@H]2CN(Cc3ccc(OC)cc3)C[C@H]1O2 | -4.08% |
| CO[C@@H]1CCN(C(=O)Cc2ccc(F)cc2)[C@@H]1Cc1cccnc1 | -3.63% |
| Cn1ccnc1CN1CCC2(CC1)COCCN(S(C)(=O)=O)C2 | -7.67% |
| CNC(=O)[C@H]1C[C@@H]2CN(Cc3ccc(C)cc3)C[C@H]1O2 | -6.44% |
| CNC(=O)[C@H]1C[C@@H]2CN(Cc3ccccc3)C[C@H]1O2 | -5.88% |
| Cc1ccc(CN2CCc3onc(C(=O)N4CCCC4)c3C2)o1 | -6.06% |
| COCC1COCCC12CCN(Cc1cccs1)CC2 (stereo unspecified) | -7.86% |
| CN(C)C(=O)CN1CCC2(CCCN(Cc3cccn3C)C2)C1=O (stereo unspecified) | 25.7% |
| O=C(NC1CC1)[C@H]1C[C@@H]2CCN(CCc3ccccc3)C[C@H]2O1 | -11.8% |
| O=C(NC[C@]12COC[C@H]1CN(C1CCOCC1)C2)c1ccco1 | -0.469% |
| CN(Cc1cn2c(n1)CN(C(=O)CC1CC1)CC2)Cc1ccco1 | -4.98% |
| Cn1nnc2c1CCN(CC1CC1)C2COCc1ccccc1 (stereo unspecified) | -6.64% |
| O=C(c1cccc(Cl)c1)N1CCCn2c(CN3CCCCC3)nnc2C1 | -1.86% |
| c1ncn(Cc2cnc3n2CCN(Cc2ccsc2)CC3)n1 | 1.42% |
| O=C1CCC2(CCN(Cc3nccs3)CC2)N1Cc1ccccc1 | -7.75% |
| COCC1CC2(CCN(CC3CC3)CC2)CN1Cc1ccccn1 (stereo unspecified) | -2.19% |
| Cc1ccc(CN2CCc3onc(C(=O)Nc4cccnc4)c3C2)o1 | -7.97% |
| Fc1cnc(N2CCC3(CC2)CN(Cc2cccs2)CCO3)nc1 | -6.3% |

| Structure (SMILES) | cytotoxicity at 70.5 h |
| --- | --- |
| O=C(C[C@@H]1COC[C@H]2CN(C3CCCC3)C[C@@H]12)NCc1cccnc1 | -8.82% |
| O=C(C[C@@H]1COC[C@H]2CN(CC3CC3)C[C@@H]12)NCc1cccnc1 | -11.6% |
| Cc1cccc(CN2CC[C@H]3OCC[C@@]3(C(=O)N3CCCO3)C2)n1 | -2.84% |
| Cc1ccc(N2C[C@H](C)[C@]3(CCN(c4cccnc4)C3=O)C2)nn1 | -3.28% |
| O=C1[C@@H]2CCN(Cc3ccoc3)C[C@@H]2OCCN1Cc1cccnc1 | -20.5% |
| c1cncc(OC[C@@H]2CC[C@H]3[C@H](CCN3Cc3cccs3)O2)c1 | -4.43% |
| Cn1cc(CN2C[C@@H]3COC[C@@H](C(=O)N4CCCCO4)[C@@H]3C2)cn1 | -1.2% |
| c1cnc(N2CCOC3(CCN(CC4CCCCC4)CC3)C2)nc1 | -4.82% |
| Cc1noc(C)c1CN1CCN(CC2CC2)c2ncccc2C1 | -5.96% |
| CN(Cc1ccco1)[C@@H]1CN(Cc2ccco2)[C@@H]2CCCO[C@H]12 | -9.38% |
| O=C(Cc1ccccn1)N1CCC2(CC1)CC(Oc1ccccn1)CO2 (stereo unspecified) | -9.02% |
| c1cncc(CN2CCN3C[C@H](Oc4cncnc4)C[C@H]3C2)c1 | -5.49% |
| c1cnn(C[C@@H]2C[C@@H]3CN(CC4CC4)CC[C@@H]3N2c2nccs2)c1 | 0.124% |
| CN1CCN(Cc2cn3c(n2)CN(C2CCOCC2)CC3)CC1 | -6.56% |
| CO[C@H]1CCN(Cc2c(C)noc2C)[C@@H]2CN(Cc3ccncc3)C[C@H]12 | -5.37% |
| O=C(Nc1cccnc1)[C@H]1CN(Cc2nccs2)C[C@H]2OCC[C@@H]12 | 35.5% |
| CN(Cc1ccccn1)C1CC2(CCN(Cc3cccnc3)CC2)C1 | 5.08% |
| Cc1noc(C)c1CN1CCN(Cc2ccncc2)c2ncccc2C1 | -7.22% |

Source: ChEMBL document CHEMBL3507680, “University of Dundee, Gates Library screen for HepG2 cell viability”
